Tests used:
Type in all cases: cell-based
SMARCA2 [1] = biological target: T1, SMARCA2 (Homo sapiens, UniProt P51531); assay: SMARCA2 degradation in SW1573 cells (Western blot); design: endogenous in cells; host or cells: SW1573; details: 24 hours
Protocol: (§1) Test Example 10 Degradation rate (%) of SMARCA2/4 by the PROTAC compounds of the present invention in HeLa cells and SW1573 cells
SW1573 cells were seeded at 2x10^5Cells/well in a 6-well plate. 2 mL of EMEM medium supplemented with 10% FBS was added to each well and was incubated overnight to allow cell attachment. The next day, 1 µL of 160 µM and 1 µL of 2 µM compound were added to the corresponding wells for treatment, resulting in final compound concentrations of 80 nM and 1 nM, respectively, and a final DMSO concentration of 0.05%. The cells were returned to the incubator and incubated for another 24 hours.
(§2) After 24 hours, cells were harvested, the medium was aspirated, and the cells were rinsed once with 1 mL/well PBS. The PBS was aspirated, and 40 µL/well of RIPA lysis buffer containing protease inhibitors was added. After lysis and centrifugation, total protein extracts were obtained, and protein concentration in the extracts was determined by BCA assay. Protein electrophoresis was performed by SDS-PAGE, followed by constant voltage electrophoresis at 100 V for 60 minutes and the protein was then transferred to a PVDF membrane. The PVDF membrane was blocked in 5% skim milk powder for 1 hour at room temperature. Primary antibodies (SMARCA2: CST#11966S, SMARCA4: CST#49360S, GAPDH: CST#5174S) were added and incubated overnight at 4°C. After washing the membrane, secondary antibodies were added and incubated at room temperature for 1 hour (protected from the light). After washing, the membrane was exposed using an Odyssey luminometer. Grayscale analysis of bands was performed using Image Studio software.
(§3) The degradation rate (%) of SMARCA2/4 by the PROTAC compounds of the present invention in HeLa cells and SW1573 cells is shown in Table 10. Table 10 Degradation rate of SMARCA2/4 by PROTAC compounds of the present invention in HeLa cells and SW1573 cells (%)

SMARCA2 [2] = biological target: T1, SMARCA2; assay: SMARCA2 degradation in HeLa cells (Western blot); design: endogenous in cells; details: 4 hours
Protocol: as §1
HeLa cells were seeded at 1.2 x 10^5 cells/well in a 6-well plate. 2 mL of EMEM medium supplemented with 10% FBS was added to each well and the culture dish was incubated overnight to allow the cells to adhere. The next day, 1 µL of 160 µM and 1 µL of 2 µM compound were added to the corresponding wells, resulting in final compound concentrations of 80 nM and 1 nM, respectively, and a final DMSO concentration of 0.05%. The cells were returned to the incubator and incubated for another 4 hours.
as §2, with “After 4 hours, cells” for “After 24 hours, cells”, “harvested, the culture medium was” for “harvested, the medium was”
as §3

SMARCA4 [3] = biological target: T2, SMARCA4 (Homo sapiens, UniProt P51532); assay: SMARCA4 degradation in HeLa cells (Western blot); design: endogenous in cells; details: 4 hours; for Dmax at 0.001 µM / Dmax at 0.08 µM: read-out: Degradation rate of SMARCA4 in HeLa cells (%)
T2 sequence (P51532 whole entry): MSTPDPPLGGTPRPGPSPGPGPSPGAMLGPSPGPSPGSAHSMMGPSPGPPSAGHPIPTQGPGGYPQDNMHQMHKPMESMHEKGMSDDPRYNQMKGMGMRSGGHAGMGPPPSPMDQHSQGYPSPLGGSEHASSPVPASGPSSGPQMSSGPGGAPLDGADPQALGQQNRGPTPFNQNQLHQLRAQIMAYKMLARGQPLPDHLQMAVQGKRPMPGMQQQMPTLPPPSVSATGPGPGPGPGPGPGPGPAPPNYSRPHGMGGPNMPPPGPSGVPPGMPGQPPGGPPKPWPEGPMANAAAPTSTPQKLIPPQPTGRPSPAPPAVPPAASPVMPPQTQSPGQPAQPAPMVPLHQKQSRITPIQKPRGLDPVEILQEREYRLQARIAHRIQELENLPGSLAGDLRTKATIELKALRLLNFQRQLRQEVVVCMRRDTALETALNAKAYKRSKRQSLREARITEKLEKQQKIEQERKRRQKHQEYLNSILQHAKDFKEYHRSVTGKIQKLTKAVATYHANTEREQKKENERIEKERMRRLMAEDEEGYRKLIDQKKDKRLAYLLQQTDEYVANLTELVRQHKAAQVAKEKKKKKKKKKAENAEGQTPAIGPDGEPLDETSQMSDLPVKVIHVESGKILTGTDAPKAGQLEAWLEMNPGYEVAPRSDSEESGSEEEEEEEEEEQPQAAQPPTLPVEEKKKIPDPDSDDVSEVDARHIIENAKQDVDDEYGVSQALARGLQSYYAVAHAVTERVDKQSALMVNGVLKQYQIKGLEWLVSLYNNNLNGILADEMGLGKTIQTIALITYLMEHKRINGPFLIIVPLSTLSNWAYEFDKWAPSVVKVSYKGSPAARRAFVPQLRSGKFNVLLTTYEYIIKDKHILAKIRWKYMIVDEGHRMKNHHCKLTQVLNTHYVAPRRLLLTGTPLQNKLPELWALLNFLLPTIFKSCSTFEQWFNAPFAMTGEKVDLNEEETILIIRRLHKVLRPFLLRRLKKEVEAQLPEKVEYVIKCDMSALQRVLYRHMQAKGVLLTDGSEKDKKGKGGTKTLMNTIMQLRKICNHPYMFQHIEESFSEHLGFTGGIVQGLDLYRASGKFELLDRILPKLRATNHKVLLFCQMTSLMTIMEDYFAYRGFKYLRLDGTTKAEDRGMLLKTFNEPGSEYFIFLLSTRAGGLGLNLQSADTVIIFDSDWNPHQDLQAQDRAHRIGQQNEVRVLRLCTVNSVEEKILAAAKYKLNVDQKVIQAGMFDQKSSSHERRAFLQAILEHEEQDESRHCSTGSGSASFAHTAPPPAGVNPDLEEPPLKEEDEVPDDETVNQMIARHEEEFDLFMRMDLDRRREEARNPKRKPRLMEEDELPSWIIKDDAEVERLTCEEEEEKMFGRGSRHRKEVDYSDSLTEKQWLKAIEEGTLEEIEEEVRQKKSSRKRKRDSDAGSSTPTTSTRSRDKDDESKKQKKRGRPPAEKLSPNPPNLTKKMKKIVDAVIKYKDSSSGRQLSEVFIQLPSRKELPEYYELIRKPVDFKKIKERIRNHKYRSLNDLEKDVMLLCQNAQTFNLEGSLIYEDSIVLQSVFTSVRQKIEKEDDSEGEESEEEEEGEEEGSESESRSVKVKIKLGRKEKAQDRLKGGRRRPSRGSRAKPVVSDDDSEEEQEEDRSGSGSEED
Protocol: HeLa cells were seeded at 1.2 x 10^5 cells/well in a 6-well plate. 2 mL of EMEM medium supplemented with 10% FBS was added to each well and the culture dish was incubated overnight to allow the cells to adhere. […] The cells were returned to the incubator and incubated for another 4 hours.
as §2, with “After 4 hours, cells” for “After 24 hours, cells”, “harvested, the culture medium was” for “harvested, the medium was”, “room temperature. […] After washing” for “room temperature. Primary antibodies (SMARCA2: CST#11966S, SMARCA4: CST#49360S, GAPDH: CST#5174S) were added and incubated overnight at 4°C. After washing”
as §3

SMARCA4 [4] = biological target: T2, SMARCA4; assay: SMARCA4 degradation in SW1573 cells (Western blot); design: endogenous in cells; host or cells: SW1573; details: 24 hours; for Dmax at 0.001 µM / Dmax at 0.08 µM: read-out: Degradation rate of SMARCA4 in SW1573 cells (%)
Protocol: SW1573 cells were seeded at 2x10^5Cells/well in a 6-well plate. 2 mL of EMEM medium supplemented with 10% FBS was added to each well and was incubated overnight to allow cell attachment. […] The cells were returned to the incubator and incubated for another 24 hours.
as §2, with “Primary antibodies (SMARCA2: CST#11966S, SMARCA4: CST#49360S, GAPDH: CST#5174S) were added and incubated overnight at 4°C.” left out
as §3

T1 sequence (P51531 whole entry): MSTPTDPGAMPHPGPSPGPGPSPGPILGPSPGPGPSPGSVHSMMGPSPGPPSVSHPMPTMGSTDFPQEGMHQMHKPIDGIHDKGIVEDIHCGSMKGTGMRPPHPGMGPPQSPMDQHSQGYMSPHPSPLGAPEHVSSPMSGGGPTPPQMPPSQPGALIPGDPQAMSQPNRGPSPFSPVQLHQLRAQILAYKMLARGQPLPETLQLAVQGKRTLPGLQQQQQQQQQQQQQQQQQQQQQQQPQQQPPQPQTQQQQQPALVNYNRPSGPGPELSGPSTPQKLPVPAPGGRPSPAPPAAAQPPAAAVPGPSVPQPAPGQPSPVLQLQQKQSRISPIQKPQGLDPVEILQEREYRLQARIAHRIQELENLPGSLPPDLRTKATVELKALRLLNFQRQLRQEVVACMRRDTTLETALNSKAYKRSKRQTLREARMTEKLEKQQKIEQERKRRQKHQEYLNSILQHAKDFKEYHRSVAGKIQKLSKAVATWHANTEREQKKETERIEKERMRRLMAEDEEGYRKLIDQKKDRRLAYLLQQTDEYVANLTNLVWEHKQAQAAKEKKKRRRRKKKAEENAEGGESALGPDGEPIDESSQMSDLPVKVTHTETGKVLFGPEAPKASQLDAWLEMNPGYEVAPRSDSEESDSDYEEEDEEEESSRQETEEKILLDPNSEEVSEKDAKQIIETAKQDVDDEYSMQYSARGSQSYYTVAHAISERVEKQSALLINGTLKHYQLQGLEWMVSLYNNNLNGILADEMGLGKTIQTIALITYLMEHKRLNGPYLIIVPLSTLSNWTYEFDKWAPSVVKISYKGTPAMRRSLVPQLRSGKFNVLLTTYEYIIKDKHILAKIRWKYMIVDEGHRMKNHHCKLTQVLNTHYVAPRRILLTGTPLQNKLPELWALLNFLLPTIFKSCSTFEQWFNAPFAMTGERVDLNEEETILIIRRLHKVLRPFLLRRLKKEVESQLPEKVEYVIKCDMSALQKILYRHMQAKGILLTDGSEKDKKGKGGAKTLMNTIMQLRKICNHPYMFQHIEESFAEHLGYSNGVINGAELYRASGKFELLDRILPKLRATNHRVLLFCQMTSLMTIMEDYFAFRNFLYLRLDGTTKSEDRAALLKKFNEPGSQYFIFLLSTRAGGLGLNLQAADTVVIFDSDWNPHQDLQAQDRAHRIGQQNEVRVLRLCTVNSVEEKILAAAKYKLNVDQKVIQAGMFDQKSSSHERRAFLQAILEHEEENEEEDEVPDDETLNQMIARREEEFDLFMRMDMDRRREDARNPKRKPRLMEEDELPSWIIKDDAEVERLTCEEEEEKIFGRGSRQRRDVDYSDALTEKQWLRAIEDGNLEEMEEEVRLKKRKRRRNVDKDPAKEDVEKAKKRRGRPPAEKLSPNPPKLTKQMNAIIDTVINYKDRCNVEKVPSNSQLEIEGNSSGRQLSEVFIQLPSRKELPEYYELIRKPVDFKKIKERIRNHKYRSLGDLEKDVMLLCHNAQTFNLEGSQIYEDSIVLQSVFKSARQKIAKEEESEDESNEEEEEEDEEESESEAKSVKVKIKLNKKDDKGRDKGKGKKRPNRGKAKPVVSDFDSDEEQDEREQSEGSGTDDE

SMILES	Degradation rate of SMARCA2 in SW1573 cells (%) (SMARCA2 [1]; 1 nM)	Degradation rate of SMARCA2 in SW1573 cells (%) (SMARCA2 [1]; 80 nM)	Degradation rate of SMARCA2 in HeLa cells (%) (SMARCA2 [2]; 1 nM)	Degradation rate of SMARCA2 in HeLa cells (%) (SMARCA2 [2]; 80 nM)	Dmax at 0.001 µM (SMARCA4 [3]; 1 nM)	Dmax at 0.08 µM (SMARCA4 [3]; 80 nM)	Dmax at 0.001 µM (SMARCA4 [4]; 1 nM)	Dmax at 0.08 µM (SMARCA4 [4]; 80 nM)	Degradation rate of SMARCA4 in HeLa cells (%) (SMARCA4 [3]; 1 nM)	Degradation rate of SMARCA4 in HeLa cells (%) (SMARCA4 [3]; 80 nM)	Degradation rate of SMARCA4 in SW1573 cells (%) (SMARCA4 [4]; 1 nM)	Degradation rate of SMARCA4 in SW1573 cells (%) (SMARCA4 [4]; 80 nM)
Nc1nnc(-c2ccccc2O)cc1C#CC1CCC2(CC1)CC(N1CCC3(CCc4ccc(NC5CCC(=O)NC5=O)cc4O3)CC1)C2 (stereo not drawn) [SM-P-24, 3-((1'-(7-((3-amino-6-(2-hydroxyphenyl)pyridazin-4-yl)ethynyl)spiro[3.5]nonan-2-yl)spiro[chromane-2,4'-piperidin]-7-yl)amino)piperidine-2,6-dione]	-29%	-75%	-10%	29%	-34%	-1%	12%	11%				
Nc1nnc(-c2ccccc2O)cc1C#CC1CCC2(CC1)CC(N1CCC3(CC1)COc1c3ccc(F)c1C(=O)N[C@H]1CCC(=O)NC1=O)C2 (stereo partly drawn) [SM-P-19]	11%	31%	14%	59%					-11%	24%	1%	0%
Cn1c(=O)n(C2CCC(=O)NC2=O)c2cc3c(cc21)C1(CCN(C(=O)[C@H]2CC[C@H](Cn4cc(-c5cc(-c6ccccc6O)nnc5N)cn4)CC2)CC1)CO3 (stereo partly drawn) [SM-P-28, 3-(1'-((1r,4r)-4-((4-(3-amino-6-(2-hydroxyphenyl)pyridazin-4-yl)-1H-pyrazol-1-yl)methyl)cyclohexane-1-carbonyl)-1-methyl-2-oxo-1,2-dihydro-3H,6H-spiro[benzofuro[5,6-d]imidazole-7,4'-piperidin]-3-yl)piperidine-2,6-dione]	14%	77%	17%	98%	38%	99%	11%	95%				
Nc1nnc(-c2ccccc2O)cc1C#CC1CCC2(CC1)CC(N1CC3(CCc4cc(F)c(C(=O)N[C@H]5CCC(=O)NC5=O)cc4O3)C1)C2 (stereo partly drawn) [SM-P-9]	3%	7%	11%	15%	-7%	21%	-8%	-5%				
Nc1nnc(-c2ccccc2O)cc1C#CC1CCC2(CC1)CC(N1CCC3(CC1)Cc1ccc(NC4CCC(=O)NC4=O)cc1O3)C2 (stereo not drawn) [SM-P-25, 3-((1'-(7-((3-amino-6-(2-hydroxyphenyl)pyridazin-4-yl)ethynyl)spiro[3.5]nonan-2-yl)-3H-spiro[benzofuran-2,4'-piperidin]-6-yl)amino)piperidine-2,6-dione]	11%	50%	10%	53%	6%	42%	-21%	-10%				
Nc1nnc(-c2ccccc2O)cc1C#CC1CCC2(CC1)CC(N1CCC3(CCc4cc(C(=O)N[C@H]5CCC(=O)NC5=O)c(F)cc4O3)CC1)C2 (stereo partly drawn) [SM-P-7]	1%	66%	7%	68%	-52%	28%	-29%	39%				
Nc1nnc(-c2ccccc2O)cc1C#CC1CCC2(CC1)CC(N1CCN3c4ccc(C(=O)N[C@H]5CCC(=O)NC5=O)cc4OC[C@@H]3C1)C2 (stereo partly drawn) [SM-P-20]	12%	76%	23%	86%					32%	65%	-56%	22%
Nc1nnc(-c2ccccc2O)cc1C#CC1CCC2(CC1)CC(N1CCN3c4ccc(C(=O)N[C@H]5CCC(=O)NC5=O)cc4OCC[C@H]3C1)C2 (stereo partly drawn) [SM-P-13, (S)-3-(7-((3-amino-6-(2-hydroxyphenyl)pyridazin-4-yl)ethynyl)spiro[3.5]nonan-2-yl)-N-((S)-2,6-dioxopyrimidin-3-yl)-2,3,4,4a,5,6-hexahydro-1H-benzo[b]pyrazino[1,2-d] [1,4]oxythiophene-9-carboxamide]	32%	88%	38%	96%					19%	65%	-11%	32%
Cn1c(=O)n(C2CCC(=O)NC2=O)c2ccc3c(c21)OCC31CCN(C(=O)[C@H]2CC[C@H](Cn3cc(-c4cc(-c5ccccc5O)nnc4N)cn3)CC2)CC1 (stereo partly drawn) [SM-P-27, 3-(1'-((1r,4r)-4-((4-(3-amino-6-(2-hydroxyphenyl)pyridazin-4-yl)-1H-pyrazol-1-yl)methyl)cyclohexane-1-carbonyl)-1-methyl-2-oxo-1,2-dihvdro-3H,7H-spiro[benzofuro[6,7-d]imidazole-6,4'-piperidin]-3-yl)piperidine-2,6-dione]	59%	88%	51%	90%	22%	79%	40%	82%				
